What all share (assay type): cell-based
In assay [1] the target is T1, human P2X2/3 receptors (Homo sapiens, UniProt P56373+Q9UBL9).
T1 construct: expressed in transfected cells; host or cells: human astrocytoma 1321N1 (1312N1 [sic])
T1 sequence (P56373 1-397): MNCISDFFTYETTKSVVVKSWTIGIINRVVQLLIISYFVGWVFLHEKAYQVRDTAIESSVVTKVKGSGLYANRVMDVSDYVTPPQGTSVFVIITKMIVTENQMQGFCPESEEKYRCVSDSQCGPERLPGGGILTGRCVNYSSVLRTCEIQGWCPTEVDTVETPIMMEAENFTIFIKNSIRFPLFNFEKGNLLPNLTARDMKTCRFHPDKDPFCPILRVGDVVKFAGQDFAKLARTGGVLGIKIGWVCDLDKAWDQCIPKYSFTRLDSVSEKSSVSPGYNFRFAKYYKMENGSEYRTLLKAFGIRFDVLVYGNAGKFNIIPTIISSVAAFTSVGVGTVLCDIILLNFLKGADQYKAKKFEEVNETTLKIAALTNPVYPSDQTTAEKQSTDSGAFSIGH
T1 sequence (Q9UBL9 1-471): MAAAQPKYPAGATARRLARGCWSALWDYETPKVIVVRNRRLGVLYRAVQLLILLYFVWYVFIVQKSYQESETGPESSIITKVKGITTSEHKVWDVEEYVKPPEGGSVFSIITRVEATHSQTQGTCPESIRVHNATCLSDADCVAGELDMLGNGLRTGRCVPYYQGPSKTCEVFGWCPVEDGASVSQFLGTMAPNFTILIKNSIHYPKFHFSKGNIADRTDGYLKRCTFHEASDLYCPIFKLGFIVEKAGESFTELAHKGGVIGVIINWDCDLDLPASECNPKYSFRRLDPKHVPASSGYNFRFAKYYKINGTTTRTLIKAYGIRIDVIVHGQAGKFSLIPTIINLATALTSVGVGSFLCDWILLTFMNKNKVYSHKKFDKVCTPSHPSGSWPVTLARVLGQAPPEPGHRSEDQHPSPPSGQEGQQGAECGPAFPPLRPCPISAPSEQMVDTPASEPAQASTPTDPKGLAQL
The experiment in a line: Intracellular calcium measurement, antagonist activity at human P2X2/3 receptors (hP2X23 1321N1), Fluo8. The settings on record: for IC50: column 4); 1321N1 cells, human P2X2/3, Fluo8, agonist ATP at EC50; read-out: 4) hP2X2/3 IC50 [nM] (1321N1); for hP2X23/hP2X3* Selectivity (1321N1): ratio of column 4) hP2X2/3 to column 3) hP2X3, 1321N1. The method in brief:
(§1)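 Antagonism was assessed by decrease of the Fluo8 calcium signal after ATP challenge, with ATP dosed at the EC50 of whichever receptor was tested. Stable 1321N1 astrocytoma lines expressed either human P2X3 or both P2X2 and P2X3, and were dye-loaded 60 min before a 10 min compound incubation.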
On the technique in general: Calcium flux is commonly read through the fluorescence of an indicator in the cells.

The target in assay [2] is T2, human P2X3 receptor (Homo sapiens, UniProt P56373).
T2 sequence (P56373 1-397): T1 sequence (P56373 1-397)
As to the kind of experiment: Intracellular calcium measurement to assess antagonist activity at human P2X3 receptors (hP2X3 CHO), photina luminescence. Set-up: expressed in transfected cells; host or cells: Chinese hamster ovary (CHO) cells. The settings on record: column 2), CHO cells, agonist α,β-methylene-ATP at EC50. The method in brief: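 Antagonism read as lowered photina luminescence after agonist stimulation in recombinant hP2X3/photina CHO cells. Cells seeded one day earlier (30 °C) and reconstituted with 5 μg/ml coelenterazine in 2 mM Ca-tyrode buffer for 3 h at 37 °C before measurement.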

Assay [3] has as its target T2, human P2X3 receptor. The experiment in a line: Intracellular calcium measurement, antagonist activity at human P2X3 receptors (hP2X3 1321N1), Fluo8. Set-up: expressed in transfected cells; host or cells: human astrocytoma 1321N1 (1312N1 [sic]). The settings on record: column 3); 1321N1 cells, human P2X3, Fluo8, agonist ATP at EC50. The procedure, abridged:
as §1

Structures can show the parent of a compound that is named as a salt.

For the molecule `CC(C)N1Cc2c(n(CC(=O)Nc3ccc(F)cn3)c3cc(C(=O)N(C)CC4CC4)nn3c2=O)C1=O` [Example 199], the IC50 in assay [1] came to 7000 nM; in assay [2], 11 nM; in assay [3], 5 nM. The “hP2X23/hP2X3* Selectivity (1321N1)” value in assay [1] came to 1321.
In the same order, the values of `CC(C)N1Cc2c(n(CC(=O)Nc3ccc(F)cn3)c3cc(C(=O)Nc4ccccc4F)nn3c2=O)C1=O` [Example 200] are 3950 nM, 44 nM, 38 nM and 105.
As for `CC(C)N1Cc2c(n(CC(=O)Nc3ccc(F)cn3)c3cc(C(=O)N4CCC4)nn3c2=O)C1=O` [Example 223, 2-[2-(azetidin-1-ylcarbonyl)-5,8-dioxo-6-(propan-2-yl)-5,6,7,8-tetrahydro-4H-pyrazolo[1,5-a]pyrrolo[3,4-d]pyrimidin-4-yl]-N-(5-fluoropyridin-2-yl)acetamide], the results for the IC50 in assay [1], in assay [2] and in assay [3] were 8920 nM, 23 nM and 56 nM, respectively. Further, the “hP2X23/hP2X3* Selectivity (1321N1)” value in assay [1] worked out at 158.
In the same order, the values of `CC(C)N1Cc2c(n(CC(=O)Nc3ccc(F)cn3)c3cc(C(=O)N4CCOCC4)nn3c2=O)C1=O` [Example 225, N-(5-fluoropyridin-2-yl)-2-[2-(morpholin-4-ylcarbonyl)-5,8-dioxo-6-(propan-2-yl)-5,6,7,8-tetrahydro-4H-pyrazolo[1,5-a]pyrrolo[3,4-d]pyrimidin-4-yl]acetamide] are greater than 32000 nM, 37 nM, 67 nM and greater than 481.
Turning to `CC(C)N1Cc2c(n(CC(=O)Nc3ccc(F)cn3)c3cc(C4CCN(C(=O)OC(C)(C)C)CC4)nn3c2=O)C1=O` [Example 227, tert-butyl 4-[4-{2-[(5-fluoropyridin-2-yl)amino]-2-oxoethyl}-5,8-dioxo-6-(propan-2-yl)-5,6,7,8-tetrahydro-4H-pyrazolo[1,5-a]pyrrolo[3,4-d]pyrimidin-2-yl]piperidine-1-carboxylate], the IC50 worked out at 9300 nM in assay [1], 24 nM in assay [2] and 71 nM in assay [3]. Moreover, the “hP2X23/hP2X3* Selectivity (1321N1)” value in assay [1] is 132.
Turning to `CC(C)N1Cc2c(n(CC(=O)Nc3ccc(F)cn3)c3cc(C4CCS(=O)(=O)CC4)nn3c2=O)C1=O` [Example 229, 2-[2-(1,1-dioxo-1lambda^6-thian-4-yl)-5,8-dioxo-6-(propan-2-yl)-5,6,7,8-tetrahydro-4H-pyrazolo[1,5-a]pyrrolo[3,4-d]pyrimidin-4-yl]-N-(5-fluoropyridin-2-yl)acetamide], the IC50 was greater than 32000 nM in assay [1], 39 nM in assay [2] and 27 nM in assay [3]. The “hP2X23/hP2X3* Selectivity (1321N1)” value in assay [1] was greater than 1185.
For `CCc1cc2n(CC(=O)Nc3ccc(F)cn3)c3c(c(=O)n2n1)CN(C[C@H]1CCCN1)C3=O` [Example 233, 2-{2-ethyl-5,8-dioxo-6-[(2R)-pyrrolidin-2-ylmethyl]-5,6,7,8-tetrahydro-4H-pyrazolo[1,5-a]pyrrolo[3,4-d]pyrimidin-4-yl}-N-(5-fluoropyridin-2-yl)acetamide hydrochloride (1:1)] the same measures were greater than 32000 nM, 335 nM, 1060 nM and greater than 30.
Take `CC(C)N1Cc2c(n(CC(=O)Nc3ccc(F)cn3)c3cc(C4CCNCC4)nn3c2=O)C1=O.Cl` [Example 234, 2-[5,8-dioxo-2-(piperidin-4-yl)-6-(propan-2-yl)-5,6,7,8-tetrahydro-4H-pyrazolo[1,5-a]pyrrolo[3,4-d]pyrimidin-4-yl]-N-(5-fluoropyridin-2-yl)acetamide hydrochloride (1:1)]: the IC50 in assay [1] is greater than 32000 nM; in assay [2] it was 125 nM; in assay [3], 370 nM. The “hP2X23/hP2X3* Selectivity (1321N1)” value in assay [1] is recorded as greater than 86.
For `CCc1cc2n(CC(=O)Nc3ccc(F)cn3)c3c(c(=O)n2n1)CN(CC1CCNC1)C3=O.Cl` (stereo not shown) [Example 238], the IC50 in assay [1] was greater than 32000 nM; in assay [2], 550 nM; in assay [3], 650 nM. Further, the “hP2X23/hP2X3* Selectivity (1321N1)” value in assay [1] is on record as greater than 49.
In the same order, the values of `CCc1cc2n(CC(=O)Nc3ccc(F)cn3)c3c(c(=O)n2n1)CN(CC1CCCN1)C3=O.Cl` (stereo not shown) [Example 239] are greater than 32000 nM, 220 nM, 650 nM and greater than 49.
In the same order, the values of `CCc1cc2n(CC(=O)Nc3ccc(F)cn3)c3c(c(=O)n2n1)CN(CC1CCNCC1)C3=O.Cl` [Example 240] are greater than 32000 nM, 628 nM, 1270 nM and greater than 25.
Take `CC(C)N1Cc2c(n(CC(=O)Nc3ccc(F)cn3)c3cc(C4CNC4)nn3c2=O)C1=O.Cl` [Example 244]: the IC50 came to 7900 nM in assay [1], 330 nM in assay [2] and 280 nM in assay [3]. Further, the “hP2X23/hP2X3* Selectivity (1321N1)” value in assay [1] is 28.
For `CCc1cc2n(CC(=O)Nc3ccc(F)cn3)c3c(c(=O)n2n1)CN(CCN)C3=O` [Example 245, 2-[6-(2-aminoethyl)-2-ethyl-5,8-dioxo-5,6,7,8-tetrahydro-4H-pyrazolo[1,5-a]pyrrolo[3,4-d]pyrimidin-4-yl]-N-(5-fluoropyridin-2-yl)acetamide] the same measures were greater than 21000 nM, 425 nM, 345 nM and greater than 61.
With `CCc1cc2n(CC(=O)Nc3ccc(F)cn3)c3c(c(=O)n2n1)CN(C[C@@H]1CNCCO1)C3=O` [Example 246, 2-{2-ethyl-6-[(2S)-morpholin-2-ylmethyl]-5,8-dioxo-5,6,7,8-tetrahydro-4H-pyrazolo[1,5-a]pyrrolo[3,4-d]pyrimidin-4-yl}-N-(5-fluoropyridin-2-yl)acetamide], the IC50 was greater than 32000 nM in assay [1], 830 nM in assay [2] and 2200 nM in assay [3]. For the same molecule, the “hP2X23/hP2X3* Selectivity (1321N1)” value in assay [1] is given as greater than 15.
Consider `CCc1cc2n(CC(=O)Nc3ccc(F)cn3)c3c(c(=O)n2n1)CN(C[C@H]1CNCCO1)C3=O` [Example 247, 2-{2-ethyl-6-[(2R)-morpholin-2-ylmethyl]-5,8-dioxo-5,6,7,8-tetrahydro-4H-pyrazolo[1,5-a]pyrrolo[3,4-d]pyrimidin-4-yl}-N-(5-fluoropyridin-2-yl)acetamide], for which the figures for the IC50 in assay [1], in assay [2] and in assay [3] were greater than 32000 nM, 360 nM and 937 nM, respectively. In addition, in assay [1], the “hP2X23/hP2X3* Selectivity (1321N1)” value is on record as greater than 34.
On to `CCc1cc2n(CC(=O)Nc3ccc(F)cn3)c3c(c(=O)n2n1)CN(C[C@@H]1COCCN1)C3=O` [Example 248, 2-{2-ethyl-6-[(3R)-morpholin-3-ylmethyl]-5,8-dioxo-5,6,7,8-tetrahydro-4H-pyrazolo[1,5-a]pyrrolo[3,4-d]pyrimidin-4-yl}-N-(5-fluoropyridin-2-yl)acetamide], for which the values for the IC50 in assay [1], in assay [2] and in assay [3] were greater than 32000 nM, 185 nM and 740 nM, respectively. Further, the “hP2X23/hP2X3* Selectivity (1321N1)” value in assay [1] is greater than 43.
In the same order, the values of `CC(C)N1Cc2c(n(CC(=O)Nc3ccc(F)cn3)c3cc(C4CCN(C5CCC5)C4)nn3c2=O)C1=O` (stereo not shown) [Example 250] are 4300 nM, 162 nM, 118 nM and 36.
In the same order, the values of `CC(C)N1Cc2c(n(CC(=O)Nc3ccc(F)cn3)c3cc(C4CCN(C)CC4)nn3c2=O)C1=O` [Example 251] are greater than 32000 nM, 235 nM, 195 nM and greater than 164.
In the same order, the values of `CC(C)N1Cc2c(n(CC(=O)Nc3ccc(F)cn3)c3cc(C4CCN(C5CCC5)CC4)nn3c2=O)C1=O` [Example 252] are greater than 32000 nM, 460 nM, 350 nM and greater than 91.

(Values after US11319324B2, “Pyrazolo-pyrrolo-pyrimidine-dione derivatives as P2X3 inhibitors” (Bayer Aktiengesellschaft, priority 2017, dated 2022).)
